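Cells were grown in 96-well plates and exposed to each compound for 48 hours at five concentrations; endpoints were interpolated linearly between bracketing concentrations, or set to the highest concentration if not reached. Definition used: TGI = concentration required for complete inhibition of growth.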
Legend:
Assay in all cases: NCI-60 cell line screen, 48 h
786-0 renal = test system: 786-0 renal
A498 renal = test system: A498 renal
A549 NSCLC = test system: A549 NSCLC
ACHN renal = test system: ACHN renal
BT-549 breast = test system: BT-549 breast
CAKI-1 renal = test system: CAKI-1 renal
CCRF-CEM leukemia = test system: CCRF-CEM leukemia
COLO 205 colon = test system: COLO 205 colon
DU-145 prostate = test system: DU-145 prostate
EKVX NSCLC = test system: EKVX NSCLC
HCT-116 colon = test system: HCT-116 colon
HCT-15 colon = test system: HCT-15 colon
HL-60(TB) leukemia = test system: HL-60(TB) leukemia
HOP-62 NSCLC = test system: HOP-62 NSCLC
HS 578T breast = test system: HS 578T breast
HT29 colon = test system: HT29 colon
IGROV1 ovarian = test system: IGROV1 ovarian
K-562 leukemia = test system: K-562 leukemia
KM12 colon = test system: KM12 colon
LOX IMVI melanoma = test system: LOX IMVI melanoma
M14 melanoma = test system: M14 melanoma
MALME-3M melanoma = test system: MALME-3M melanoma
MCF7 breast = test system: MCF7 breast
MDA-MB-231 breast = test system: MDA-MB-231 breast
MDA-MB-435 = test system: MDA-MB-435
MDA-N = test system: MDA-N
MOLT-4 leukemia = test system: MOLT-4 leukemia
NCI-H226 lung = test system: NCI-H226 lung
NCI-H23 lung = test system: NCI-H23 lung
NCI-H460 lung = test system: NCI-H460 lung
NCI/ADR-RES ovarian = test system: NCI/ADR-RES ovarian
OVCAR-3 ovarian = test system: OVCAR-3 ovarian
OVCAR-4 ovarian = test system: OVCAR-4 ovarian
OVCAR-5 ovarian = test system: OVCAR-5 ovarian
OVCAR-8 ovarian = test system: OVCAR-8 ovarian
PC-3 prostate = test system: PC-3 prostate
RPMI-8226 leukemia = test system: RPMI-8226 leukemia
RXF 393 renal = test system: RXF 393 renal
SF-268 CNS = test system: SF-268 CNS
SF-295 CNS = test system: SF-295 CNS
SF-539 CNS = test system: SF-539 CNS
SK-MEL-2 melanoma = test system: SK-MEL-2 melanoma
SK-MEL-28 melanoma = test system: SK-MEL-28 melanoma
SK-MEL-5 melanoma = test system: SK-MEL-5 melanoma
SK-OV-3 ovarian = test system: SK-OV-3 ovarian
SN12C renal = test system: SN12C renal
SNB-19 CNS = test system: SNB-19 CNS
SNB-75 CNS = test system: SNB-75 CNS
SR leukemia = test system: SR leukemia
SW-620 colon = test system: SW-620 colon
T-47D breast = test system: T-47D breast
TK-10 renal = test system: TK-10 renal
U251 CNS = test system: U251 CNS
UACC-257 melanoma = test system: UACC-257 melanoma
UACC-62 melanoma = test system: UACC-62 melanoma
UO-31 renal = test system: UO-31 renal

CCCCC/C=C\C=C1\C(=O)C=C[C@@H]1C/C=C\CCCC(=O)O
TGI (786-0 renal): 9.73 µM
TGI (A498 renal): 21.4 µM
TGI (A549 NSCLC): 18.7 µM
TGI (ACHN renal): 9.48 µM
TGI (BT-549 breast): 5.13 µM
TGI (CAKI-1 renal): 14.9 µM
TGI (CCRF-CEM leukemia): 3.28 µM
TGI (COLO 205 colon): 9.36 µM
TGI (DU-145 prostate): 15.5 µM
TGI (EKVX NSCLC): 5.61 µM
TGI (HCT-116 colon): 2.74 µM
TGI (HCT-15 colon): 14.9 µM
TGI (HL-60(TB) leukemia): 17.9 µM
TGI (HOP-62 NSCLC): 8.62 µM
TGI (HS 578T breast): 13.4 µM
TGI (HT29 colon): 12 µM
TGI (IGROV1 ovarian): 8.93 µM
TGI (K-562 leukemia): 60 µM
TGI (KM12 colon): 11.9 µM
TGI (LOX IMVI melanoma): 8.19 µM
TGI (M14 melanoma): 15.1 µM
TGI (MALME-3M melanoma): 25 µM
TGI (MCF7 breast): 12.9 µM
TGI (MDA-MB-231 breast): 18.7 µM
TGI (MDA-MB-435): 9.16 µM
TGI (MDA-N): 7.14 µM
TGI (MOLT-4 leukemia): 60 µM
TGI (NCI-H226 lung): 14.8 µM
TGI (NCI-H23 lung): 15.5 µM
TGI (NCI-H460 lung): 16.5 µM
TGI (NCI/ADR-RES ovarian): 2.66 µM
TGI (OVCAR-3 ovarian): 9.82 µM
TGI (OVCAR-4 ovarian): 6.28 µM
TGI (OVCAR-5 ovarian): 9.72 µM
TGI (OVCAR-8 ovarian): 3.73 µM
TGI (PC-3 prostate): 5.13 µM
TGI (RPMI-8226 leukemia): 3.15 µM
TGI (RXF 393 renal): 6.93 µM
TGI (SF-268 CNS): 13.6 µM
TGI (SF-295 CNS): 11.5 µM
TGI (SF-539 CNS): 12.8 µM
TGI (SK-MEL-2 melanoma): 9.85 µM
TGI (SK-MEL-28 melanoma): 13.9 µM
TGI (SK-MEL-5 melanoma): 11.2 µM
TGI (SK-OV-3 ovarian): 14.4 µM
TGI (SN12C renal): 8.06 µM
TGI (SNB-19 CNS): 12.1 µM
TGI (SNB-75 CNS): 17.7 µM
TGI (SR leukemia): 5.53 µM
TGI (SW-620 colon): 9.09 µM
TGI (T-47D breast): 24.5 µM
TGI (TK-10 renal): 18 µM
TGI (U251 CNS): 8.39 µM
TGI (UACC-257 melanoma): 14.7 µM
TGI (UACC-62 melanoma): 12 µM
TGI (UO-31 renal): 13.4 µM

— PubChem BioAssay (NCI)
